C=C(C)[C@@H]1CC[C@]2(C(=O)O)CC[C@]3(C)[C@H](CC[C@@H]4[C@@]5(C)CC[C@H](O)C(C)(C)[C@@H]5CC[C@]43C)[C@@H]12
solubility (mole fraction)
Conditions | 278.2 K | 288.2 K | 298.2 K | 308.2 K | 318.2 K
in THF | 0.00975 | 0.0136 | 0.0206 | 0.0276 | 0.0388
in acetone | 0.000398 | 0.000502 | 0.000598 | 0.000829 | 0.00103
in ethanol | 0.000651 | 0.000819 | 0.00107 | 0.00135 | 0.00171
in ethyl acetate | 0.00045 | 0.000515 | 0.000733 | 0.000956 | 0.00124
in ethyl formate | 0.0002 | 0.000272 | 0.000428 | 0.000548 | 0.000786
in isopropanol | 0.000765 | 0.00092 | 0.0012 | 0.00149 | 0.00196
in methanol | 0.00019 | 0.000248 | 0.000339 | 0.000461 | 0.000734
in n-butanol | 0.00118 | 0.00149 | 0.00192 | 0.00234 | 0.003
in n-butyl acetate | 0.000824 | 0.001 | 0.0012 | 0.00159 | 0.00193
in n-hexanol | 0.00226 | 0.00283 | 0.00324 | 0.00378 | 0.00454
in n-pentanol | 0.00199 | 0.00228 | 0.00266 | 0.00309 | 0.00363
in n-propanol | 0.00103 | 0.00137 | 0.00178 | 0.00221 | 0.0028
in sec-butanol | 0.000821 | 0.00113 | 0.00149 | 0.00189 | 0.00245

From BigSolDB 2.1
